Here are results for 19 molecules from patent US8440710B2, “HSL inhibitors useful in the treatment of diabetes” (Hoffmann-La Roche Inc., priority 2009, dated 2013).

Usually IC50 stands for the concentration needed to halve the response being measured.

This test concerns the target T1, human HSL (Homo sapiens, UniProt Q05469).
T1 construct: generate a full length human HSL ORF with a 3′-His6 tag; made in house; host or cells: High 5 insect cells (baculovirus, pFast-BAC)
T1 sequence (Q05469 1-1076): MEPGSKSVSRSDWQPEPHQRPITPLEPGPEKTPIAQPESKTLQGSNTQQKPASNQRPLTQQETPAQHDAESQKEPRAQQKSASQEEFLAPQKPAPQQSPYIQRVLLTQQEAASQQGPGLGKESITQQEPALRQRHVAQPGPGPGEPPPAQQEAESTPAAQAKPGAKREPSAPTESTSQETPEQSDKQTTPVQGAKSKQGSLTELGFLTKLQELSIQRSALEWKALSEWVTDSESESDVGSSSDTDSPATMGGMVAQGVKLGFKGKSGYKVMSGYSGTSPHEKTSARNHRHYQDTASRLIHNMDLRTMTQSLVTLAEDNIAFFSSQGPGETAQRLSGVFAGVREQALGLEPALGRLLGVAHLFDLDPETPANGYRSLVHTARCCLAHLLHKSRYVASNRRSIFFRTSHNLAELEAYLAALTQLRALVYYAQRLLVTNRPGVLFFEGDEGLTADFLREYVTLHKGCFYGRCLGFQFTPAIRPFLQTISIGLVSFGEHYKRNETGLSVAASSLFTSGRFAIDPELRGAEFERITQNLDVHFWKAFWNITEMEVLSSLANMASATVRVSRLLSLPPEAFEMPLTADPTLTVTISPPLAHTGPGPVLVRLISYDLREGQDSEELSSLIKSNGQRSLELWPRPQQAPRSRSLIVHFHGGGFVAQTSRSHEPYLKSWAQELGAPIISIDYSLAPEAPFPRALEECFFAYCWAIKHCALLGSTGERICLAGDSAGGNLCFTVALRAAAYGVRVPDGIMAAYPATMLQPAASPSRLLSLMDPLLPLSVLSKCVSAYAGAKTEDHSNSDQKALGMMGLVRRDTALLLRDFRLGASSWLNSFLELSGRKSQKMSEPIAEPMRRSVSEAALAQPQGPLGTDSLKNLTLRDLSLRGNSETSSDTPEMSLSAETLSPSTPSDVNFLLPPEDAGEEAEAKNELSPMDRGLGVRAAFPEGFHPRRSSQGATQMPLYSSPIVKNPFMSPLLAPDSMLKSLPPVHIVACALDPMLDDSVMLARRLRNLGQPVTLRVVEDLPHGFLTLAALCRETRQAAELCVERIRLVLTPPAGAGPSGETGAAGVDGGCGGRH
Briefly: Human Hormone-Sensitive Lipase (HSL) enzyme inhibition assay (colorimetric, DMPT substrate). In kind it is biochemical. As to conditions: human full length HSL-His6, 2,3-dimercapto-1-propanol tributyrate substrate, 37° C. 20 minutes, absorbance at 405 nm; read-out: HSL hum IC50. Here is the method:
Production of Human Full Length Hormone Sensitive Lipase-His^6:
1) Cloning: cDNA was prepared from commercial human brain polyA+ RNA and used as a template in overlapping PCR to generate a full length human HSL ORF with a 3′-His6 tag. This full length insert was cloned into the pFast-BAC vector and the DNA-sequence of several single clones was verified. DNA from a correct full length clone with the 3′His6 tag was used to transform the E. coli strain DH10BAC. Resulting bacmid DNA was used to generate a titered baculovirus stock for protein generation. The sequence of the encoded HSL conforms to Swissprot entry Q05469, with the additional C-terminal His6-tag. 2) Protein purification: Culture: 5.5 L, High 5 cells expressing human full length HSL-His^6, 48 hr., containing 25 μM E-64. Cell count: […], 90% viable. Cells were thawed. On ice, cells were suspended in Base Buffer containing 10% glycerol, 25 mM Tris-Cl, 300 mM NaCl, 10 mM imidazole, 10 mM 2-mercaptoethanol, 2 μg pepstatin/ml, 2 μg leupeptin/ml, 2 μg antipain/ml, pH 8.0 at 4° C. in a final volume of 475 ml with 3.75×10^7 cells/ml. […] was done at 3×30 sec., Lubrol PX was added to 0.2% final concentration followed by stirring for 15 min. at 4° C. and centrifugation at 25 k×g, 60 min., 4° C. Soluble proteins were mixed with 60 ml of pre-washed and equilibrated Ni-NTA Agarose (Qiagen 30210) followed by tumbling end-over-end, 45 min., 4° C., centrifugation 1000 rpm 5 min and letting resin settle 5 min. Supernatant was removed, the resin washed in the centrifuge vessel using 5 volumes of Base Buffer containing 0.2% Lubrol PX. Centrifugation was done again, then the supernatant discarded. The resin was poured onto a 0.8 μm membrane in a disposable filter unit (Nalge 450-0080), and washed with 5 volumes of Base Buffer containing 0.2% Lubrol PX. It was then washed with 30 volumes of Base Buffer containing 60 mM imidazole pH 7.5 at 4° C. The protein was eluated with 5 volumes of 25 mM Tris-Cl, 300 mM NaCl, 200 mM imidazole, 10 mM 2-mercaptoethanol, pH 7.5 at 4° C. by tumbling resin with buffer end-over-end, 30 min., 4° C. The resin was captured on a 0.2 μm membrane disposable filter unit (Millipore SCGP U02 RE) and the eluate collected in the reservoir. The eluate was concentrated using a 30 k MWCO centrifugal filter device (Sartorius Vivascience Vivacell 100, VC1022), to 20 ml. It was then dialyzed overnight at 4° C., two times against 2 L of 10% glycerol, 25 mM Tris-Cl, 300 mM NaCl, 0.2 mM EDTA, 0.2 mM DTT, pH 7.5 at 4° C. The protein was filtered using a 0.22 μm disposable filter unit (Millipore SCGP00525). The protein concentration was calculated from absorbance at 280 nm, using 280=0.67 cm-1 mg-1. Yield was 235 mg, total. The protein was stored at −80° C. Human Hormone-Sensitive Lipase (HSL) Enzyme Inhibition Assay:
HSL enzyme activity was measured by a colorimetric assay using 2,3-dimercapto-1-propanol tributyrate (Aldrich, St. Louis, Mo.) as a substrate. Typically, 1.5 mM 2,3-dimercapto-1-propanol tributyrate (DMPT) in 100 mM MOPS, pH 7.2, 0.2 mg/ml fatty acid-free BSA was prepared by sonication at 4° C. to homogenous suspension. Test compounds (2 mM stock in DMSO) were diluted 3 fold in series in DMSO. Compound solutions were diluted 24 fold in 1.5 mM DMPT containing solution and 18 ul per well was added to 384-well microplates (Corning Costar). Twelve microliters per well of human HSL (15 ug/ml) was added and the reaction mixture was incubated at 37° C. for 20 minutes. Six microliters of 12 mM dithio-bis-(2-nitrobenzoic acid) (DTNB) in DMSO plus 1.2% SDS and 0.6% Triton X-100 were added and the mixture was incubated at room temperature for 15 minutes. Product production was monitored by reading absorbance at 405 nm on an Envision Reader (PerkinElmer Life and Analytical Sciences, Shelton, Conn.).
Regarding `O=C1N(c2ccc([C@@H](O)C(F)(F)F)cc2)CC[C@]12CC[C@@](O)(CCC(F)(F)F)CC2` [Example 194, (5α,8α)-8-hydroxy-2-(4-((R)-2,2,2-trifluoro-1-hydroxyethyl)phenyl)-8-(3,3,3-trifluoropropyl)-2-aza-spiro[4.5]decan-1-one], the IC50 worked out at 20 nM.
The same measure for `CCC[C@]1(O)CC[C@]2(CCN(c3ccc(S(=O)(=O)CC)cc3)C2=O)CC1` [Example 187, (5α,8α)-2-(4-Ethanesulfonyl-phenyl)-8-hydroxy-8-propyl-2-aza-spiro[4.5]decan-1-one]: 650 nM; for `CCc1ccc(N2CC[C@]3(CC[C@H](OC(=O)NCc4cccc(F)c4)CC3)C2=O)cc1` [Example 45, (3-Fluoro-benzyl)-carbamic acid [(5α,8α)-2-(4-ethyl-phenyl)-1-oxo-2-aza-spiro[4.5]dec-8-yl]ester]: 1110 nM.
On to `O=C1N(c2ccc(OCC(F)(F)F)cc2)CC[C@]12CC[C@](O)(COCC1CCC1)CC2` [Example 254, (5α,8β)-8-[(Cyclobutylmethoxy)methyl]-8-hydroxy-2-[4-(2,2,2-trifluoro-ethoxy)-phenyl]-2-aza-spiro[4.5]decan-1-one], for which the IC50 was found to be 410 nM.
For `COCCc1ccc(N2CC[C@]3(CC[C@@](O)(CC(C)C)CC3)C2=O)cc1` [Example 124, (5α,8α)-8-Hydroxy-8-isobutyl-2-[4-(2-methoxy-ethyl)-phenyl]-2-aza-spiro[4.5]decan-1-one], the IC50 was found to be 20 nM.
As for `COC[C@]1(O)CC[C@]2(CCN(c3ccc(C(C)(C)C)cc3)C2=O)CC1` [Example 346, (5α,8α)-2-(4-tert-Butyl-phenyl)-8-hydroxy-8-methoxymethyl-2-aza-spiro[4.5]decan-1-one], the half-maximal inhibitory concentration (IC50) came out at 20 nM.
The same measure for `CC(C)OC[C@]1(O)CC[C@]2(CCN(c3ccc(O[C@@H](C)C(F)(F)F)cc3)C2=O)CC1` [Example 308, (5α,8α)-8-Hydroxy-8-isopropoxymethyl-2-[4-((S)-2,2,2-trifluoro-1-methyl-ethoxy)-phenyl]-2-aza-spiro[4.5]decan-1-one]: 10 nM; for `CCc1ccc(N2CC[C@]3(CC[C@@H](OC(=O)NCc4cccc(F)c4)CC3)C2=O)cc1` [Example 7, (3-Fluoro-benzyl)-carbamic acid [(5α,8β)-2-(4-ethyl-phenyl)-1-oxo-2-aza-spiro[4.5]dec-8-yl]ester]: 70 nM; for `O=C1N(c2ccc([C@@H](O)C(F)(F)F)cc2)CC[C@]12CC[C@@](O)(C1CCCC1)CC2` [Example 202, (5α,8α)-8-cyclopentyl-8-hydroxy-2-(4-((R)-2,2,2-trifluoro-1-hydroxyethyl)phenyl)-2-aza-spiro[4.5]decan-1-one]: 10 nM.
On to `CCC[C@]1(O)CC[C@]2(CCN(c3ccc(C(O)C(F)(F)F)cc3)C2=O)CC1` (mixture of isomers) [Example 133, (5α,8α)-8-Hydroxy-8-propyl-2-(4-(2,2,2-trifluoro-1-hydroxyethyl)phenyl)-2-aza-spiro[4.5]decan-1-one], for which the IC50 was determined as 30 nM.
For the molecule `COC[C@]1(O)CC[C@]2(CCN(c3ccc(C4CC4)cc3)C2=O)CC1` [Example 223, (5α,8α)-2-(4-Cyclopropyl-phenyl)-8-hydroxy-8-methoxymethyl-2-aza-spiro[4.5]decan-1-one], the IC50 was 50 nM.
As to `CC(C)(C)c1ccc(N2CCC3(CCC(C(O)(O)C(F)(F)F)CC3)C2=O)cc1` (stereo not shown) [Example 362, 2-(4-tert-Butyl-phenyl)-8-(2,2,2-trifluoro-1,1-dihydroxy-ethyl)-2-aza-spiro[4.5]decan-1-one], the half-maximal inhibitory concentration (IC50) is 10 nM.
As for `O=C1N(c2ccc(OCC(F)(F)F)nc2)CC[C@]12CC[C@@](O)(COCC(F)(F)F)CC2` [Example 279, (5α,8α)-8-Hydroxy-8-(2,2,2-trifluoro-ethoxymethyl)-2-[6-(2,2,2-trifluoro-ethoxy)-pyridin-3-yl]-2-aza-spiro[4.5]decan-1-one], the figure is 20 nM; as for `CCc1ccc(N2CC[C@]3(CC[C@@H](OCc4ccccc4)CC3)C2=O)cc1` [Example 4, (5α,8β)-8-Benzyloxy-2-(4-ethyl-phenyl)-2-aza-spiro[4.5]decan-1-one], 240 nM; as for `CC(OC[C@]1(O)CC[C@]2(CCN(c3ccc(OCC(F)(F)F)cc3)C2=O)CC1)C(F)(F)F` (stereo partly drawn) [Example 292, (5α,8α)-8-Hydroxy-2-[4-(2,2,2-trifluoro-ethoxy)-phenyl]-8-(2,2,2-trifluoro-1-methyl-ethoxymethyl)-2-aza-spiro[4.5]decan-1-one], 10 nM.
For the molecule `O=C1N(c2ccc(OC(F)(F)F)cc2)CC[C@]12CC[C@@](O)(CCO)CC2` [Example 118, (5α,8α)-8-Hydroxy-8-(2-hydroxy-ethyl)-2-(4-trifluoromethoxy-phenyl)-2-aza-spiro[4.5]decan-1-one], the IC50 amounted to 100 nM.
Consider `CCCc1ccc(N2CC[C@]3(CC[C@@](O)(CC)CC3)C2=O)cc1` [Example 83, (5α,8α)-8-Ethyl-8-hydroxy-2-(4-propyl-phenyl)-2-aza-spiro[4.5]decan-1-one], for which the IC50 was determined as 70 nM.
The same measure for `CCCO[C@H]1CC[C@]2(CCN(c3ccc(OC(F)(F)F)cc3)C2=O)CC1` [Example 42, (5α,8α)-8-Propoxy-2-(4-trifluoromethoxy-phenyl)-2-aza-spiro[4.5]decan-1-one]: 320 nM; for `O=C(NCC1CC1)O[C@H]1CC[C@@]2(CCN(c3ccc(OC(F)(F)F)cc3)C2=O)CC1` [Example 22, (Cyclopropylmethyl)-carbamic acid [(5α,8β)-1-oxo-2-(4-trifluoromethoxy-phenyl)-2-aza-spiro[4.5]dec-8-yl]ester]: 60 nM.
